The values that follow are results of earlier work, collected in patent US20230064685A1, “METHODS AND COMPOSITIONS TO INHIBIT SYMPTOMS ASSOCIATED WITH VEISALGIA” (SEN-JAM PHARMACEUTICAL LLC, priority 2015, published 2023).

The test system of data set [1] is hangover symptom of thirst. To be noted: each drug alone; general statement, no test described.
For data set [2], the system named is alcohol hangover. As to conditions: randomized controlled trials reviewed by Pittler et al. 2005.

Take `CC(C)(C(=O)O)c1ccc(C(O)CCCN2CCC(C(O)(c3ccccc3)c3ccccc3)CC2)cc1` (racemic) [fexofenadine, (±)-4-[1 hydroxy-4-[4-(hydroxydiphenylmethyl)-1-piperidinyl]-butyl]-α, α-dimethyl benzeneacetic acid]: the “effect or side effect of reducing thirst” value in data set [1] is “neither naproxen nor fexofenadine, alone, has shown any effect or side effect of reducing thirst”. Take `COc1ccc2cc(C(C)C(=O)O)ccc2c1` (stereo not drawn) [naproxen, 6-methoxy-α-methyl-2-naphthaleneacetic acid]: the “effect or side effect of reducing thirst” value in data set [1] is on record as “neither naproxen nor fexofenadine, alone, has shown any effect or side effect of reducing thirst”.

Take `Cc1c(Cl)cccc1Nc1ccccc1C(=O)O` [tolfenamic acid]: in data set [2], the “intergroup differences for overall symptom scores and individual symptoms” value was “Significant intergroup differences”. With `CCCCC/C=C\C/C=C\C/C=C\CCCCC(=O)O` [γ linolenic acid from B officinalis, γ linolenic acid], in data set [2], the “intergroup differences for overall symptom scores and individual symptoms” value was “Significant intergroup differences”.
